Laboratory results published in paper PMC5700161, “Structure of human immunoproteasome with a reversible and noncompetitive inhibitor that selectively inhibits activated lymphocytes” (Nature Communications, 2017).
“Also recorded” adds a separate entry of the source. Where two headings read alike, the source gives them in different places.

What was measured:
[1] = biological target: β2i (Homo sapiens, UniProt P40306); assay: IC50 against β2i of human immunoproteasome (Z-VLR-AMC)
Description: (§2) IC50s of all compounds against β5i and β5c (Table 2) and against β1i, β2i, β1c, and β2c (Supplementary Table 1) were determined following reported methods[8].

[2] = biological target: β2c (Homo sapiens, UniProt Q99436); assay: IC50 against β2c of human constitutive proteasome (Z-VLR-AMC)
Description: as §2

[3] = biological target: β1i (Homo sapiens, UniProt P28065); assay: IC50 against β1i of human immunoproteasome (Ac-PAL-AMC)
Description: as §2

[4] = biological target: human β5c (Homo sapiens, UniProt P20618+P28074); assay: IC50 determination against human β5c of c-20S
Description: as §2

[5] = biological target: β1c (Homo sapiens, UniProt P28072); assay: IC50 against β1c of human constitutive proteasome (Z-LLE-AMC)
Description: as §2

[6] = biological target: human β5i (Homo sapiens, UniProt P20618+P28062); assay: IC50 determination against human β5i of i-20S; details: for reduction in potency against β5i: in comparing to PKS21221
Description: as §2

[7] = biological target: T1, β5c (c-20S) (Homo sapiens, UniProt P20618+P28074); assay: Kinetics studies of modality of inhibition against β5c; format: biochemical
Description: Data as in d are shown in double reciprocal plots in e, and data from f in g. […] Data are means ± SEM of three independent experiments
(§1) With increasing concentrations of PKS21004, both V max and K M decreased (Fig. 1d–g and Supplementary Fig. 1). […] This class thus joins a growing list of noncompetitive proteasome inhibitors[5],[30].

[8] = biological target: T2, β5i (i-20S) (Homo sapiens, UniProt P20618+P28062); assay: Kinetics studies of modality of inhibition against β5i; format: biochemical
T2 construct: purchased Boston Biochem
Description: Data as in d are shown in double reciprocal plots in e, and data from f in g. […] Data are means ± SEM of three independent experiments […]
as §1
Supplementary Figure 11. Inhibition kinetics of PKS21221 against i-20S β5i. (A) Steady state velocities of the Ac-ANW-AMC hydrolysis at 10, 15, 25, 35 µM by i-20S β5i (0.4 nM) in the presence of PKS21221 at indicated concentrations were determined at 37 °C and plotted by RFU versus substrate concentration (A); values of KM, Ki and α were estimated by PRISM using equation V = (Vmax / (1 + I / (α*Ki))) * S / (KM * (1+ I / Ki) / (1 + I / (α*Ki)) + S); (B) Lineweaver-Burk plot of the data in (A). (C) Plot of KM versus concentrations of PKS21221 indicates a mixed type inhibition. (D) Plot of Vmax versus concentrations of PKS21221.
(1 picture or pasted object on this page, not shown here)

[9] = biological target: T1, β5c (c-20S); assay: Reversibility: dialysis of pre-incubated c-20S and inhibitor; format: biochemical; details: dialysis of pre-incubated mixture of c-20S and inhibitor
Description: as §1

[10] = read-out: IC50 2i - VLR (β2i), substrate Z-VLR-AMC
[11] = read-out: IC50 2c - VLR (β2c), substrate Z-VLR-AMC
[12] = read-out: IC50 1i - PAL (β1i), substrate Ac-PAL-AMC
[13] = read-out: IC50 1c - LLE (β1c), substrate Z-LLE-AMC
[14] = read-out: IC50 against human β5i
[15] = fit to equation for noncompetitive inhibitors

`CC(C)(C)NC(=O)C[C@H](NC(=O)CCc1ccccc1)C(=O)NCCNC(=O)c1cccc2ccccc12` [PKS3080] gave an IC50 [1, 10] of over 50 µM, an IC50 [2, 11] of over 50 µM and an IC50 [3, 12] of over 50 µM. The IC50 ([4]; read-out: IC50 against human β5c) was 1.22 µM, the IC50 [5, 13] was over 50 µM and the IC50 [6, 14] was 0.37 µM.

Molecule `CC(C)(C)NC(=O)C[C@H](NC(=O)CCc1ccccc1)C(=O)NCCNC(=O)c1ccc(-c2ccccc2)cc1` [PKS21003] has an IC50 [1] of over 50 µM, an IC50 [2] of over 50 µM and an IC50 [3] of over 50 µM. For the same molecule, the IC50 [4] was over 100 µM, the “inhibitory activity against β5c (in words)” value [4] was “inactive” and the IC50 [5] was over 50 µM. The IC50 [6] was over 100 µM and the “inhibitory activity against β5i (in words)” value [6] was “inactive”.

Molecule `CC(C)(C)NC(=O)C[C@H](NC(=O)CCc1ccccc1)C(=O)NCCNC(=O)c1cccc(-c2ccccc2)c1` [PKS21004] has an IC50 [1] of over 50 µM, an IC50 [2] of over 50 µM and an IC50 [3] of over 50 µM. The “α for β5c (αc-20S)” value [7] was 0.65 and ≈ 0.65, the Ki [7, 15] was 0.55 µM and the “modality of inhibition of β5c” value ([7]; versus substrate) was “noncompetitively”. For the same molecule, the “Hill coefficient constant, inhibition of β5c” value [4] was ~ 1, the IC50 [4] was 0.326 µM and the IC50 [5] was over 50 µM. For the same molecule, the “α for β5i (αi-20S)” value [8] was “≈ 0.28”, the α for β5i ([8]; as printed in legend of Fig. 1) was 0.28 and the Ki [8, 15] was 0.077 µM. For the same molecule, the “modality of inhibition of β5i” value ([8]; versus substrate) was “noncompetitively”, the “reversibility of β5c inhibition; β5c activity after dialysis” value [9] was “reversibly inhibits; also recorded: fully restored” and the “Hill coefficient constant, inhibition of β5i” value [6] was ~ 1. It also gave an IC50 [6] of 0.058 µM.

`CC(CNC(=O)c1cccc(-c2ccccc2)c1)NC(=O)[C@H](CC(=O)NC(C)(C)C)NC(=O)CCc1ccccc1` (some centres unmarked) [PKS21018] showed an IC50 [1, 10] of over 50 µM, an IC50 [2, 11] of over 50 µM and an IC50 [3, 12] of over 50 µM. The IC50 [5, 13] was over 50 µM.

Molecule `CC(C)(C)NC(=O)C[C@H](NC(=O)CCc1ccccc1)C(=O)NCCNC(=O)c1ccc2ccccc2c1` [PKS21025] has an IC50 [1, 10] of over 50 µM, an IC50 [2, 11] of over 50 µM and an IC50 [3, 12] of over 50 µM. The IC50 [5, 13] was over 50 µM, the “selectivity for β5i over β5c” value [6] was 26 fold and the “improvement of potency against β5i” value ([6]; relative to PKS3080) was 3 fold.

`CC(C)(C)NC(=O)C[C@H](NC(=O)CCc1ccccc1)C(=O)NCCNC(=O)c1cccc(-c2ccc(F)cc2)c1` [PKS21026] was tested, and the IC50 [1, 10] was over 50 µM, the IC50 [2, 11] was over 50 µM and the IC50 [3, 12] was over 50 µM. It also gave an IC50 [5, 13] of over 50 µM.

With `CC(C)(C)NC(=O)C[C@H](NC(=O)CCc1ccccc1)C(=O)NCCNC(=O)c1cccc(-c2ccc(C#N)cc2)c1` [PKS21028] the IC50 [1, 10] was over 50 µM, the IC50 [2, 11] was over 50 µM and the IC50 [3, 12] was over 50 µM. The IC50 [5, 13] was over 50 µM.

Molecule `CC(C)(C)NC(=O)C[C@H](NC(=O)CCc1ccccc1)C(=O)NCCNC(=O)c1cc(-c2ccccc2F)ccc1F` [PKS21187] has an IC50 [1, 10] of over 50 µM, an IC50 [2, 11] of over 50 µM and an IC50 [3, 12] of over 50 µM. For the same molecule, the IC50 [5, 13] was over 50 µM, the “selectivity for β5i over β5c” value [6] was ~ 20 fold and the IC50 [6, 14] was 0.015 µM.

In the case of `CC(C)(C)NC(=O)C[C@H](NC(=O)CCc1ccccc1)C(=O)NCCNC(=O)c1cc(-c2cccc(F)c2)ccc1F` [PKS21195], the IC50 [1, 10] is reported as over 50 µM, the IC50 [2, 11] is reported as over 50 µM and the IC50 [3, 12] is reported as over 50 µM. The IC50 [5, 13] was over 50 µM.

With `CC(C)(C)NC(=O)C[C@H](NC(=O)CCc1ccccc1)C(=O)NCCNC(=O)c1cc(-c2ccccc2)ccc1F` [PKS21196] the IC50 [1, 10] was over 50 µM, the IC50 [2, 11] was over 50 µM and the IC50 [3, 12] was over 50 µM. The IC50 [5, 13] was over 50 µM.

`CC(C)(C)NC(=O)C[C@H](NC(=O)OC(C)(C)C)C(=O)NCCNC(=O)c1cc(-c2ccccc2F)ccc1F` [PKS21277] was tested, and the IC50 [1, 10] was over 50 µM, the IC50 [2, 11] was over 50 µM and the IC50 [3, 12] was over 50 µM. The IC50 [5, 13] was over 50 µM, the “inhibitory activity against β5i (in words)” value [6] was “modestly potent” and the “selectivity for β5i over β5c” value [6] was 36 fold.

`CC(C)(C)OC(=O)N[C@@H](CC(N)=O)C(=O)NCCNC(=O)c1cc(-c2ccccc2F)ccc1F` [PKS21281] gave an IC50 [1, 10] of over 50 µM, an IC50 [2, 11] of over 50 µM and an IC50 [3, 12] of over 50 µM. The “inhibitory activity against β5c (in words)” value [4] was “abolished the inhibitory activities”, the IC50 [5, 13] was over 50 µM and the “inhibitory activity against β5i (in words)” value [6] was “abolished the inhibitory activities”.

With `Cc1ccc(S(=O)(=O)N[C@@H](CC(N)=O)C(=O)NCCNC(=O)c2cc(-c3ccccc3F)ccc2F)cc1` [PKS21288] the IC50 [1, 10] was over 50 µM, the IC50 [2, 11] was over 50 µM and the IC50 [3, 12] was over 50 µM. For the same molecule, the “inhibitory activity against β5c (in words)” value [4] was “eliminated inhibitory activity”, the IC50 [5, 13] was over 50 µM and the “inhibitory activity against β5i (in words)” value [6] was “eliminated inhibitory activity”.

For `Cc1ccc(S(=O)(=O)NCC(=O)NCCNC(=O)c2cc(-c3ccccc3F)ccc2F)cc1` [PKS21289], the IC50 [1, 10] was over 50 µM, the IC50 [2, 11] was over 50 µM and the IC50 [3, 12] was over 50 µM. The “inhibitory activity against β5c (in words)” value [4] was “eliminated inhibitory activity”, the IC50 [5, 13] was over 50 µM and the “inhibitory activity against β5i (in words)” value [6] was “eliminated inhibitory activity”.

`Cc1ccc(S(=O)(=O)N[C@@H](C)C(=O)NCCNC(=O)c2cc(-c3ccccc3F)ccc2F)cc1` [PKS21290] was tested, and the IC50 [1, 10] was over 50 µM, the IC50 [2, 11] was over 50 µM and the IC50 [3, 12] was over 50 µM. The “inhibitory activity against β5c (in words)” value [4] was “eliminated inhibitory activity”, the IC50 [5, 13] was over 50 µM and the “inhibitory activity against β5i (in words)” value [6] was “eliminated inhibitory activity”.

`CC(C)(C)NC(=O)C[C@H](NS(=O)(=O)C1CC1)C(=O)NCCNC(=O)c1cc(-c2ccccc2F)ccc1F` [PKS21293] was tested, and the IC50 [1, 10] was over 50 µM, the IC50 [2, 11] was over 50 µM and the IC50 [3, 12] was over 50 µM. For the same molecule, the IC50 [5, 13] was over 50 µM, the “selectivity for β5i over β5c” value [6] was 64 fold and the “reduction in potency against β5i” value [6] was 3.7 fold.

For `CC(=O)N[C@@H](CC(=O)NC(C)(C)C)C(=O)NCCNC(=O)c1cc(-c2ccccc2F)ccc1F` [PKS21294], the IC50 [1, 10] was over 50 µM, the IC50 [2, 11] was over 50 µM and the IC50 [3, 12] was over 50 µM. The “reduction in potency against β5c” value ([4]; in comparing to PKS21221) was 120 fold, the IC50 [5, 13] was over 50 µM and the “reduction in potency against β5i” value [6] was 150 fold.
